Measured values published in patent US10010513B2, “Aqueous pharmaceutical composition containing a biologic therapeutic agent and guanidine or a guanidine derivative and an injection including the composition” (Novartis AG, priority 2012, dated 2018).

Columns and labels:
New Zealand White rabbit = assay: Toxicity of Arginine-containing formulation buffer following intravitreal administration; format: in vivo
Description: A study was performed to determine the toxicity of an Arginine-containing formulation buffer following intravitreal administration to the New Zealand White rabbit for 4 weeks. Three buffers in 50 μl volumes and varying in concentrations of Arginine were injected intravitreally on a weekly basis for 3 weeks (i.e., three doses) and evaluated for toxicity. The three buffers were as follows: (1) 10 mM Histidine, 170 mM, Trehalose, 0.01% polysorbate 20, pH 5.5; (2) 50 mM Arginine, 10 mM, Histidine, 120 mM Trehalose, 0.01% polysorbate 20, pH 5.5; and (3) 150 mM Arginine, 10 mM Histidine, 0.01% polysorbate).

[1] = Viscosity of the formulations; format: physicochemical; details: Table 5 summary; 150 mM excipient, IgG1/lambda monoclonal antibody
Description: Unless otherwise specifically stated, viscosity of any composition discussed herein is determined at a temperature of 20° C. and a shear rate of 1029 s^−1 with a cone spindle of geometry 0.50°/40 mm.

SMILES	Damage to photoreceptor cells of the eye (New Zealand White rabbit; higher concentrations, about 150 mM)	Damage to photoreceptor cells of the eye (New Zealand White rabbit; lower concentrations of arginine)	Reduction of the viscosity of the biologic relative to trehalose, urea and taurin [1]
N=C(N)NCCC[C@H](N)C(=O)O [arginine]	have shown damage to photoreceptor cells	do not cause damage to photoreceptor cells	far superior in reducing the viscosity
N=C(N)N [guanidine]	–	–	far superior in reducing the viscosity
